# Measurements from patent publication US20250263426A1, “PDE4B INHIBITOR AND USE THEREOF” (Xizang Haisco Pharmaceutical Co., Ltd., priority 2022, published 2025).
# Where two headings read alike, the source gives them in different places.
# Key:
# PDE4D2 = PDE4D2 (Homo sapiens (Human), UniProt Q08499); assay: Effect of compounds on PDE4D2 activity (fluorescence polarization kit); type: biochemical
# Procedure: FP was usually represented by mP value.
# [formula] • I∥ (S520): fluorescence intensity in parallel direction • I⊥ (P520): fluorescence intensity in perpendicular direction • G: G factor=1
# (§1) [formula] • mP(sample): mP of the test compound in a reaction well • mP(negative control): mP in the negative control well • mP(positive control): mP in the positive control well
# According to the calculated inhibition rate at each concentration, the IC50 value of each compound was calculated by GraphPad Prism 8 software.
# PDE4B2 = PDE4B2 (Homo sapiens (Human), UniProt Q07343); assay: Effect of compounds on PDE4B2 activity (fluorescence polarization kit)
# Sequence of PDE4B2 (Q07343 other isoform, or with tags, fused parts or gaps): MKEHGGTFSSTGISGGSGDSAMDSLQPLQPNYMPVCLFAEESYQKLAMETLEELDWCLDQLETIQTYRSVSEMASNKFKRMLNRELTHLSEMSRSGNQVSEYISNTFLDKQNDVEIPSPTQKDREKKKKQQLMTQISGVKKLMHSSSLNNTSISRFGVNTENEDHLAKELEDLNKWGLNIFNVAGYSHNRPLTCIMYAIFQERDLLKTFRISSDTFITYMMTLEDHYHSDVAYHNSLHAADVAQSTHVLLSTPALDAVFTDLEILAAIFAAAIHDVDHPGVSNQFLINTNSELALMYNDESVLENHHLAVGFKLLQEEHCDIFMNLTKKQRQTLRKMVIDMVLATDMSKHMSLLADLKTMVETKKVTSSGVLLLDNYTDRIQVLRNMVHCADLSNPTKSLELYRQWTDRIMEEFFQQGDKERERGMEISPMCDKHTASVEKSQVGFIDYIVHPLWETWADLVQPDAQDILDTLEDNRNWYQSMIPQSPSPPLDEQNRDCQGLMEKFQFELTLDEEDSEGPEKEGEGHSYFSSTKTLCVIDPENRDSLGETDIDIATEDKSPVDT
# From the text: [formula] • I∥ (S535): fluorescence intensity in parallel direction • I⊥ (P535): fluorescence intensity in perpendicular direction • G: G factor=1
# PDE4B1 = PDE4B1 (Homo sapiens (Human), UniProt Q07343); assay: Effect of compounds on PDE4B1 activity (IMAP fluorescence polarization kit); type: biochemical
# Sequence of PDE4B1 (Q07343 whole entry): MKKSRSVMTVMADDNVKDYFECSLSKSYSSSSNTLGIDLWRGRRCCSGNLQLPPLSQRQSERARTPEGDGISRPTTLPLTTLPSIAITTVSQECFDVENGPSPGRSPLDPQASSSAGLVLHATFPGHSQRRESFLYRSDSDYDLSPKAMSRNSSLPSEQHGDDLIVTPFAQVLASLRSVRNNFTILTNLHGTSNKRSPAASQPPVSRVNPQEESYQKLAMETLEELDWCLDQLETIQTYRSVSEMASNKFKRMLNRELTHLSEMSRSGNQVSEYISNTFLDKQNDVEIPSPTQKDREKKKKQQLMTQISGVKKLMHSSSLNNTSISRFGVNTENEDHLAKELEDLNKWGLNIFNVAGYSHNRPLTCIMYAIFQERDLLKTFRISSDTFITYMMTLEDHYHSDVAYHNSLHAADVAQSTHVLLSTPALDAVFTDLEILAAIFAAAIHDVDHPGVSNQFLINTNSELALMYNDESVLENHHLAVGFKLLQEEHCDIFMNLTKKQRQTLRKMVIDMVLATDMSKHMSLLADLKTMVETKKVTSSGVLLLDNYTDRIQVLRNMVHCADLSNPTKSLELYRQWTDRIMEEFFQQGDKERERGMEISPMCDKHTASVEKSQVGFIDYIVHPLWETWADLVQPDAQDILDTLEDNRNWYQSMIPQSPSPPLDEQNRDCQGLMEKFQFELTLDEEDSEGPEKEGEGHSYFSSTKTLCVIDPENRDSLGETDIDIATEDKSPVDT
# Procedure: The effect of compounds on PDE4B1 activity was detected using a fluorescence polarization kit (IMAP FP IPP Explorer KIT, Molecular Device, Cat #R8124). The IMAP Reaction Buffer containing 0.1% BSA (5×) in the kit was diluted into a 1-fold reaction buffer containing 1 mM DTT. 0.12 nM PDE4B1 (BPS, Cat #60041) was added to the 1-fold reaction buffer to form a 2-fold enzyme solution. 10 μL of the 2-fold enzyme solution was added to wells of a 384-well reaction plate. For the negative control well, 10 μL of the 1-fold reaction buffer was used instead of the enzyme solution. Centrifugation at 1000 rpm for 1 minute and incubation at room temperature for 15 minutes were carried out. 0.2 uM FAM-labeled cAMP (FAM-cAMP, Molecular Device, Cat #R7506) was added to the 1-fold reaction buffer to form a 2-fold substrate solution. 10 μL of the 2-fold substrate solution was added to each well of the 384-well reaction plate. Centrifugation at 1000 rpm for 1 minute was carried out. A reaction was carried out at room temperature for 20 minutes. IMAP Progressive Binding Buffer A (5×), IMAP Progressive Binding Buffer B (5×), and IMAP Progressive Binding Reagent (provided by IMAP FP IPP Explorer Kit) were prepared into a reaction stop solution according to the instructions for use. 60 μL of an […] reaction stop solution was added to each well of the 384-well reaction plate to stop the reaction, and the reaction product was centrifuged at 1000 rpm for 1 minute. Incubation at room temperature in the dark for 60 minutes was carried out. The mP values (Ex480/Em535 (s), Em535 (p)) were read by a microplate reader (Envision).
# FP was usually represented by mP value. mP value for FP measurement=1000*(S−G*P)/(S+G*P) • S: fluorescence intensity in parallel direction • P: fluorescence intensity in perpendicular direction • G: G factor=1
# as §1
# According to the calculated inhibition rate at each concentration, the IC50 value of each compound was calculated by XLFit excel add-in version 5.4.0.8 software.
# [1] = test system: human peripheral blood mononuclear cells (TNF-α release); assay: Inhibition of LPS-induced TNF-α release from human peripheral blood mononuclear cells in vitro; type: cell-based; conditions: 4 h; for IC50: read-out: Re IC50; for Emax: read-out: Max inhibition (%)
# Procedure: 5. Detection of Inhibitory Activity of Compounds on the Release of Tumor Necrosis Factor-α (TNF-α) from Human Peripheral Blood Mononuclear Cells Induced by Lipopolysaccharide (LPS) In Vitro
# The concentration of hPBMC cells was adjusted to 0.25×10^6 cells/mL with RPMI1640 medium and inoculated into a 96-well plate in an amount of 50000 cells per well. […] Incubation was carried out for 4 h in an incubator at 37° C. and 5% CO2. The cell supernatant was collected, and the content of TNF-α in the supernatant sample was detected by human TNF-α Elisa quantitative test kit (Sino Biological, Cat #KIT10602). The IC50 value was calculated using GraphPad Prism software.
# [2] = Pharmacokinetic test in mice; type: in vivo, ICR mice; conditions: for half-life: read-out: T½ (converted)
# Procedure: 6.1 Experimental animals: Male ICR mice, 20-25 g, 6 mice/compound, purchased from Chengdu Ddossy Experimental Animals Co., Ltd.
# 6.2 Experiment design: On the day of the experiment, 6 ICR mice were randomly grouped according to their body weights. The animals were fasted with water available for 12 to 14 h one day before the administration and were fed 4 h after the administration.
# [3] = Pharmacokinetic test in beagle dogs; type: in vivo; conditions: for half-life: read-out: T½ (converted)
# Procedure: 8.1 Experimental animals: Male beagle dogs, about 8-11 kg, 6 beagle dogs/compound, purchased from Beijing Marshall Biotechnology Co., Ltd.
# 8.2 Experimental method: On the day of the experiment, 6 beagle dogs were randomly grouped according to their body weights. The animals were fasted with water available for 12 to 14 h one day before the administration and were fed 4 h after the administration. Administration was carried out according to Table 10.
# [4] = Pharmacokinetic test in rats; type: in vivo; conditions: male, SD
# Procedure: 7.1 Experimental animals: Male SD rats, about 220 g, 6-8 weeks old, 6 rats/compound, purchased from Chengdu Ddossy Experimental Animals Co., Ltd.
# 7.2 Experiment design: On the day of the experiment, 6 SD rats were randomly grouped according to their body weights. The animals were fasted with water available for 12 to 14 h one day before the administration and were fed 4 h after the administration.
# [5] = relative IC50, hPBMC, 100 ng/mL LPS
# [6] = male, ICR, iv, mouse plasma, i.v. 2.5 mg/kg
# [7] = male, ICR, po, mouse plasma, i.g. 10 mg/kg
# [8] = male, iv, beagle dog plasma, i.v. 1 mg/kg
# [9] = male, po, beagle dog plasma, i.g. 3 mg/kg
# [10] = Homo sapiens, PBMC, hPBMC, 100 ng/mL LPS
# Sequence of PDE4D2 (Q08499 303-809, change not shown): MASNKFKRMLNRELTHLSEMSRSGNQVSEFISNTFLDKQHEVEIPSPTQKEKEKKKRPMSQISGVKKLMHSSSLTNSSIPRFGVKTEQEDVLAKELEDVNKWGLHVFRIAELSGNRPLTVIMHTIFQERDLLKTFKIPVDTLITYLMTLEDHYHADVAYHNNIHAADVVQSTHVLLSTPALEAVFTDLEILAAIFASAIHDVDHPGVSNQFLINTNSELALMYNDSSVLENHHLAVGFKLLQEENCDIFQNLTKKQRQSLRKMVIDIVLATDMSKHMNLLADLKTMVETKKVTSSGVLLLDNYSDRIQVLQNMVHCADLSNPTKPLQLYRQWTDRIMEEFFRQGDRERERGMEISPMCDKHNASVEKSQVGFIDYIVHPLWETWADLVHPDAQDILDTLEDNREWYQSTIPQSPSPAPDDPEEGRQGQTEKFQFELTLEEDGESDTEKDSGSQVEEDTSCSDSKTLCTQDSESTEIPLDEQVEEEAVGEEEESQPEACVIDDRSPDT
SMILES,IC50 (PDE4D2) [nM],IC50 (PDE4B2; read-out: PDE4B2 IC50) [nM],IC50 (PDE4B1) [nM],"Max inhibition (%) ([1]; hPBMC, 100 ng/mL LPS)","IC50 [1, 5] [nM]",further results
[O-][S+]1CCCc2nc(N3CCC(c4ncc(Cl)cn4)CC3)nc(NC3(CO)CCC3)c21 (centres unmarked) [Compound 3],< 10,10 to 50,< 10,,,
[O-][S@@+]1CCCc2nc(N3CC=C(c4ccc(Cl)cc4)CC3)nc(NC3(CO)CCC3)c21 [Compound 8-2],< 10,,< 10,,,
[O-][S@@+]1CCCc2nc(N3CC=C(c4ncc(Cl)cn4)CC3)nc(NC3(CO)CCC3)c21 [Compound 9-2],< 10,,< 10,69.47,10 to 50,
[O-][S@+]1CCCc2nc(N3CCC(c4ccc(Cl)cc4)CC3)nc(NC3(CO)CCC3)c21 [Compound 10-2],,,10 to 50,,,
[O-][S@@+]1CCCc2nc(N3CCN(c4ccc(Cl)cc4)CC3)nc(NC3(CO)CCC3)c21 [Compound 11-1],10 to 50,,< 10,,,
CC(C)(COC(N)=O)Nc1nc(N2CC=C(c3ncc(Cl)cn3)CC2)nc2c1[S@+]([O-])CC2 [Compound 51],< 10,,,,,"AUC(0-t) [2, 6]: 5420 ± 926 ng·h/mL; clearance [2, 6]: 7.81 ± 1.4 mL/min/kg; half-life [2, 6]: 2.82 ± 0.23 h; Vd ([2]; male, ICR, iv, mouse plasma, i.v. 2.5 mg/kg, read-out: Vdss): 1.29 ± 0.039 L/kg; AUC(0-t) [2, 7]: 30100 ± 5360 ng·h/mL; half-life [2, 7]: 3.33 ± 0.58 h; F ([2]; mouse, i.g. 10 mg/kg): >98%; F ([3]; beagle dog, i.g. 3 mg/kg): 74.9 ± 11%; AUC(0-t) [3, 8]: 4990 ± 239 ng·h/mL; clearance [3, 8]: 3.06 ± 0.18 mL/min/kg; half-life [3, 8]: 12.8 ± 3.8 h; Vd ([3]; male, iv, beagle dog plasma, i.v. 1 mg/kg, read-out: Vdss): 3.08 ± 0.61 L/kg; AUC(0-t) [3, 9]: 11200 ± 1710 ng·h/mL; half-life [3, 9]: 16.1 ± 5.5 h; IC50 ([1]; Homo sapiens, PBMC): < 10 nM; Emax [1, 10]: 69%; IC50 (PDE4B2): < 10 nM"
CC(C)(COC(N)=O)Nc1nc(N2CC=C(c3ncc(C4CC4)cn3)CC2)nc2c1[S@+]([O-])CC2 [Compound 84],< 10,,,,,"AUC(0-t) ([4]; iv, rat plasma, i.v. 2.5 mg/kg): 16500 ng·h/mL; clearance ([4]; iv, rat plasma, i.v. 2.5 mg/kg): 2.54 ± 0.32 mL/min/kg; Vd ([4]; iv, rat plasma, i.v. 2.5 mg/kg, read-out: Vdss): 0.324 ± 0.012 L/kg; bioavailability ([4]; plasma, po, rat, i.g. 10 mg/kg): 78.9 ± 32%; AUC(0-t) ([4]; po, rat plasma, i.g. 10 mg/kg): 52200 ng·h/mL; IC50 ([1]; Homo sapiens, PBMC): < 10 nM; Emax [1, 10]: 68%; IC50 (PDE4B2): < 10 nM"
C#Cc1ccc(C2=CCN(c3nc4c(c(NC(C)(C)COC(N)=O)n3)[S@+]([O-])CC4)CC2)nc1 [Compound 105],< 10,,,,,"IC50 ([1]; Homo sapiens, PBMC): < 10 nM; Emax [1, 10]: 84%; IC50 (PDE4B2): < 10 nM"
CC(C)(COC(N)=O)Nc1nc(N2CC=C(c3ncc(N4CC[Si](C)(C)CC4)cn3)CC2)nc2c1[S@+]([O-])CC2 [Compound 106],10 to 50,10 to 50,,98.36,10 to 50,
CN1C[C@@H](Nc2nc(N3C[C@H]4CN(c5ccc6c(c5)CC6)C[C@H]4C3)nc3c2[S@@+]([O-])CC3)CCC1=O [Compound 109-4],< 10,< 10,,85.74,< 10,
CC#Cc1cnc2c(c1)OC[C@@H]1CN(c3nc4c(c(NC(C)(C)COC(N)=O)n3)[S@+]([O-])CC4)CCN21 [Compound 112-1],10 to 50,< 10,,83.76,10 to 50,
COC(=O)NCC(C)(C)Nc1nc(N2CC=C(c3ncc(C4CC4)cn3)CC2)nc2c1[S@+]([O-])CC2 [Compound 117],10 to 50,,,,,"IC50 ([1]; Homo sapiens, PBMC): 10 to 50 nM; Emax [1, 10]: 86%; IC50 (PDE4B2): 10 to 50 nM"
COC(=O)NCC(C)(C)Nc1nc(N2C[C@@H]3CC(c4ncc5c(n4)CC5)=C[C@@H]3C2)nc2c1[S@+]([O-])CC2 [Compound 139-1],< 10,< 10,,92.69,< 10,
CC#Cc1cnc2c(c1)OC[C@@H]1CN(c3nc4c(c(NC(C)(C)CNC(=O)OC)n3)[S@+]([O-])CC4)CCN21 [Compound 140-1],10 to 50,10 to 50,,93.38,< 10,
CC#Cc1cnc2c(c1)OC[C@H]1CN(c3nc4c(c(NC(C)(C)CNC(=O)OC)n3)[S@+]([O-])CC4)CCN21 [Compound 140-2],50 to 100,10 to 50,,89.58,10 to 50,
